Test results as given in EP0940081A1, “Combinations of active agents and disinfectants, preservatives and antiseptics containing same” (Bode Chemie GmbH & Co., priority 1998, dated 1999).
Where two headings read alike, the source gives them in different places.

Legend:
[1] = test system: Escherichia coli; test: Agar incorporation test, bacteriostatic activity; format: cell-based; design: key: ⊕⊕: ungehemmtes Wachstum; ⊕: vermindertes Wachstum; -: absolute Hemmung (a. H.); settings: 24 h bei 36 °C
Excerpt: (§1) Methodik: Percarbamid und Dodecylthiouroniumchlorid werden unter städigem Durchmischen bis zur vollständigen Homogenisierung erwärmt. Die Prüfung der Kombination im Vergleich zu den entsprechenden Monowirkstoffen auf bakteriostatische Wirksamkeit erfolgte im Agarinkorporationstest. Die zu untersuchenden Substanzen wurden in Wasser standardisierter Härte gelöst. Die Konzentration der Testsubstanzen im Nähragar wurde in einer geometrischen Reihe auf der Basis 2 abgestuft. Zum Beimpfen der Testplatten wurden die im Beispiel 1 genannten Testkeime 6 h in Caseinpepton-Sojamehlpepton-Lösung bebrütet und so in eine logarithmische Wachstumsphase gebracht. Danach wurden die Agarplatten sternförmig sektorenweise mit jeweils einer ? abgestrichenen Öse beimpft. Der Sektor von Proteus mirabilis wurde durch Gräben abgetrennt, um das Schwärmen zu verhindern. Nach 24 h Bebrütung bei 36 °C erfolgte die Bewertung des Bakterienwachstums unter Vergleich mit substanzfreien Kontrollplatten nach folgendem Schema: ++++ ungehemmtes Wachstum +++ geringe Wachstumshemmung (maximal ¾ des Wachstums der Kontrollen) ++ mäßige Wachstumshemmung (maximal ½ des Wachstums der Kontrollen) + starke Wachstumshemmung (maximal ¼ des Wachstums der Kontrollen) Das sog. ? verminderte Wachstum" (v. W.) umfaßt die Bereiche + bis +++ - absolute Hemmung (a. H.)
(§2) In den Tabellen 5, 6 und 7 bedeuten ⊕⊕ ungehemmtes Wachstum und ⊕ vermindertes Wachstum.

[2] = test system: Enterococcus faecium; test: Agar incorporation test, bacteriostatic activity; format: cell-based; design: key: ⊕⊕: ungehemmtes Wachstum; ⊕: vermindertes Wachstum; -: absolute Hemmung (a. H.); settings: 24 h bei 36 °C
Excerpt: as §1, §2

[3] = test system: Proteus mirabilis; test: Agar incorporation test, bacteriostatic activity; format: cell-based; design: key: ⊕⊕: ungehemmtes Wachstum; ⊕: vermindertes Wachstum; -: absolute Hemmung (a. H.); settings: 24 h bei 36 °C
Excerpt: as §1, §2

[4] = test system: Staphylococcus aureus; test: Agar incorporation test, bacteriostatic activity; format: cell-based; design: key: ⊕⊕: ungehemmtes Wachstum; ⊕: vermindertes Wachstum; -: absolute Hemmung (a. H.); settings: 24 h bei 36 °C
Excerpt: as §1, §2

[5] = test system: Sporen von Bacillus subtilis var. niger ATCC 9372; test: Sporicidal activity on spore test strips; format: cell-based; settings: Monowirkstoff; Einwirkungszeit 3 Tage
Excerpt: Methodik: Kommerzielle Teststreifen mit 10^6 Sporen von Bacillus subtilis var. niger ATCC 9372 (BAG-Bio Strips, Biologische Analysensystem GmbH Lich) wurden für 3 Tage in eine Lösung der Prüfsubstanz eingelegt. Danach wurden die Teststreifen in eine Nährlösung überführt und 7 Tage bebrütet.

[6] = test system: humanen Amnionepithelzellen; format: cell-based, human
Excerpt: Methodik: Die Untersuchungen wurden an einer Perfusionszellkultur mit humanen Amnionepithelzellen durchgeführt. Der Glucoseverbrauch wurde kontinuierlich von 1 bis 96 Stunden biosensorisch gemessen (Jülich et al., im Druck). Die Prüfsubstanzen wirkten von der 25. bis 48. Stunde ein.

[7] = test system: Pseudomonas aeruginosa; test: Agar incorporation test, bacteriostatic activity; format: cell-based; design: key to Bakteriostatische Wirksamkeit (Wachstum): ⊕⊕: ungehemmtes Wachstum; ⊕: vermindertes Wachstum; -: absolute Hemmung (a. H.); settings: for Bakteriostatische Wirksamkeit (Wachstum): 24 h bei 36 °C
Excerpt: as §1, §2

[8] = test system: FL-Linie (menschliche Amnionzellen); test: Cytotoxicity, cell count of monolayer culture after 24 h exposure; format: cell-based, human; settings: for Median der Zellzahl: 24 h
Description: Methodik: Die Zytotoxizität wird an der FL-Linie (menschliche Amnionzellen) geprüft. 2-3 Tage nach der Zelleinsaat werden die Zellen, nachdem sie als einschichtige Zellkultur (Monolayer) vorliegen, nach Medienwechsel für 24 h mit der Prüfsubstanz exponiert, danach abgelöst und die Zellzahl in % zur Kontrolle mit dem Zellzähler Universal 87001 (mölab, Hilden) ermittelt.

[9] = test system: Escherichia coli ATCC 11229; test: Röhrchenverdünnungstest, bacteriostatic activity; format: cell-based; design: key: +: Wachstum; -: kein Wachstum; settings: 72 h bei 37 °C
Description: (§3) Methodik der Prüfung auf bakteriostatische und fungistatische Wirksamkeit im Röhrchenverdünnungtest: In sterile Reagenzröhrchen werden je 5 ml der Verdünnungen der Prüfsubstanzen in Wasser standardisierter Härte mit 5 ml doppelt konzentrierter Caseinpepton-Sojamehl-Pepton-Lösung (CSL) vermischt. Zur Bestimmung der bakteriostatischen Wirkung werden die Röhrchen durch Zugabe von 0,1 ml einer 1 : 10 mit CSL verdünnten, 24 h bei 37 °C bebrüteten CSL-Kultur beimpft. Zur Prüfung der fungistatischen Wirkung werden je 0,1 ml einer unverdünnten, 72 h bei 37 °C bebrüteten CSL-Kultur von Candida albicans verwendet. Die Auswertung erfolgt nach einer Bebrütung von 72 h bei 37 °C. Es erfolgte außerdem eine Nachbeimpfung von CSA-Platten durch Ausstreichen der ? 72 h-Testlösungen", um das Wachstum der Testkeime zu beurteilen. Folgende Testkeime wurden eingesetzt: Sa: Staphylococcus aureus ATCC 6538 Ef: Enterococcus faecium ATCC 6057 Ec: Escherichia coli ATCC 11229 Pm: Proteus mirabilis ATCC 14153 Pa: Pseudomonas aeruginosa ATCC 15442 Ca: Candida albicans ATCC 10231

[10] = test system: Proteus mirabilis ATCC 14153; test: Röhrchenverdünnungstest, bacteriostatic activity; format: cell-based; design: key: +: Wachstum; -: kein Wachstum; settings: 72 h bei 37 °C
Description: as §3

[11] = test system: Staphylococcus aureus ATCC 6538; test: Röhrchenverdünnungstest, bacteriostatic activity; format: cell-based; design: key: +: Wachstum; -: kein Wachstum; settings: 72 h bei 37 °C
Description: as §3

[12] = test system: Enterococcus faecium ATCC 6057; test: Röhrchenverdünnungstest, bacteriostatic activity; format: cell-based; design: key: +: Wachstum; -: kein Wachstum; settings: 72 h bei 37 °C
Description: as §3

[13] = test system: Pseudomonas aeruginosa ATCC 15442; test: Röhrchenverdünnungstest, bacteriostatic activity; format: cell-based; design: key: +: Wachstum; -: kein Wachstum; settings: 72 h bei 37 °C
Description: as §3

[14] = test system: Candida albicans ATCC 10231; test: Röhrchenverdünnungstest, fungistatic activity; format: cell-based; design: key: +: Wachstum; -: kein Wachstum; settings: 72 h bei 37 °C
Description: as §3

[15] = test system: Candida albicans ATCC 10231; test: Quantitative suspension test, fungicidal activity (DGHM guideline); format: cell-based
Excerpt: Methodik: Untersucht wurde ein Gemisch G 1 von 99,4 % MMPP und 0,6 % Decylthiouroniumbromid und ein Gemisch G 2 von 99,7 % MMPP und 0,3 % Decylthiouroniumbromid im Vergleich zu MMPP als Monowirkstoff entsprechend der Richtlinie für die Prüfung und Bewertung chemischer Desinfektionsverfahren der Deutschen Gesellschaft für Hygiene und Mikrobiologie. Testkeim: Candida albicans ATCC 10231 Enthemmer: Tween, Lecithin, Cystein (TLC)

[16] = Konzentration in Wasser 0,0015 %
[17] = Konzentration in Wasser 0,003 %
[18] = Konzentration in Wasser 0,006 %
[19] = Konzentration in Wasser 0,012 %
[20] = Konzentration in Wasser 0,025 %

Q: What does the source list for Wasserstoffperoxid?
A: Bakteriostatische Wirksamkeit (Wachstum) ([1]; Konzentration in Wasser 0,1 %): -; Bakteriostatische Wirksamkeit (Wachstum) ([1]; Konzentration in Wasser 0,2 %): -; Bakteriostatische Wirksamkeit (Wachstum) ([1]; Konzentration in Wasser 0,4 %): -; Bakteriostatische Wirksamkeit (Wachstum) ([1]; Konzentration in Wasser 0,05 %): -; Bakteriostatische Wirksamkeit (Wachstum) ([1]; Konzentration in Wasser 0,8 %): -; Bakteriostatische Wirksamkeit (Wachstum) [1, 16]: ⊕⊕; Bakteriostatische Wirksamkeit (Wachstum) [1, 17]: ⊕⊕; Bakteriostatische Wirksamkeit (Wachstum) [1, 18]: ⊕⊕; Bakteriostatische Wirksamkeit (Wachstum) [1, 19]: -; Bakteriostatische Wirksamkeit (Wachstum) [1, 20]: -; Bakteriostatische Wirksamkeit (Wachstum) ([2]; Konzentration in Wasser 0,1 %): -; Bakteriostatische Wirksamkeit (Wachstum) ([2]; Konzentration in Wasser 0,2 %): -; Bakteriostatische Wirksamkeit (Wachstum) ([2]; Konzentration in Wasser 0,4 %): -; Bakteriostatische Wirksamkeit (Wachstum) ([2]; Konzentration in Wasser 0,05 %): -; Bakteriostatische Wirksamkeit (Wachstum) ([2]; Konzentration in Wasser 0,8 %): -; Bakteriostatische Wirksamkeit (Wachstum) [2, 16]: ⊕⊕; Bakteriostatische Wirksamkeit (Wachstum) [2, 17]: ⊕⊕; Bakteriostatische Wirksamkeit (Wachstum) [2, 18]: ⊕; Bakteriostatische Wirksamkeit (Wachstum) [2, 19]: -; Bakteriostatische Wirksamkeit (Wachstum) [2, 20]: -; Bakteriostatische Wirksamkeit (Wachstum) ([3]; Konzentration in Wasser 0,1 %): -; Bakteriostatische Wirksamkeit (Wachstum) ([3]; Konzentration in Wasser 0,2 %): -; Bakteriostatische Wirksamkeit (Wachstum) ([3]; Konzentration in Wasser 0,4 %): -; Bakteriostatische Wirksamkeit (Wachstum) ([3]; Konzentration in Wasser 0,05 %): -; Bakteriostatische Wirksamkeit (Wachstum) ([3]; Konzentration in Wasser 0,8 %): -; Bakteriostatische Wirksamkeit (Wachstum) [3, 16]: ⊕⊕; Bakteriostatische Wirksamkeit (Wachstum) [3, 17]: ⊕⊕; Bakteriostatische Wirksamkeit (Wachstum) [3, 18]: ⊕⊕; Bakteriostatische Wirksamkeit (Wachstum) [3, 19]: -; Bakteriostatische Wirksamkeit (Wachstum) [3, 20]: -; Bakteriostatische Wirksamkeit (Wachstum) ([4]; Konzentration in Wasser 0,1 %): -; Bakteriostatische Wirksamkeit (Wachstum) ([4]; Konzentration in Wasser 0,2 %): -; Bakteriostatische Wirksamkeit (Wachstum) ([4]; Konzentration in Wasser 0,4 %): -; Bakteriostatische Wirksamkeit (Wachstum) ([4]; Konzentration in Wasser 0,05 %): -; Bakteriostatische Wirksamkeit (Wachstum) ([4]; Konzentration in Wasser 0,8 %): -; Bakteriostatische Wirksamkeit (Wachstum) [4, 16]: ⊕⊕; Bakteriostatische Wirksamkeit (Wachstum) [4, 17]: ⊕⊕; Bakteriostatische Wirksamkeit (Wachstum) [4, 18]: ⊕⊕; Bakteriostatische Wirksamkeit (Wachstum) [4, 19]: -; Bakteriostatische Wirksamkeit (Wachstum) [4, 20]: -; Konzentration erforderlich zur Erreichung dieses Effektes (Reduktion der Sporen von 6 log-Stufen) [5]: 0,6%; Glucosestoffwechsel der FL-Zellen [6]: signifikante, aber reversible Verminderung; Bakteriostatische Wirksamkeit (Wachstum) ([7]; Konzentration in Wasser 0,1 %): -; Bakteriostatische Wirksamkeit (Wachstum) ([7]; Konzentration in Wasser 0,2 %): -; Bakteriostatische Wirksamkeit (Wachstum) ([7]; Konzentration in Wasser 0,4 %): -; Bakteriostatische Wirksamkeit (Wachstum) ([7]; Konzentration in Wasser 0,05 %): -; Bakteriostatische Wirksamkeit (Wachstum) ([7]; Konzentration in Wasser 0,8 %): -; Bakteriostatische Wirksamkeit (Wachstum) [7, 16]: ⊕⊕; Bakteriostatische Wirksamkeit (Wachstum) [7, 17]: ⊕⊕; Bakteriostatische Wirksamkeit (Wachstum) [7, 18]: ⊕⊕; Bakteriostatische Wirksamkeit (Wachstum) [7, 19]: ⊕⊕; Bakteriostatische Wirksamkeit (Wachstum) [7, 20]: ⊕⊕; Konzentration, durch die Pseudomonas aeruginosa gehemmt wird (minimale Hemmkonzentration) ([7]; single substance, resistentester Testkeim): 0,05%; Zellwachstum [8]: vollständigen Inhibierung des Zellwachstums; Median der Zellzahl ([8]; Prüfkonzentration 0,001 %): 17,9 % der Kontrolle; Median der Zellzahl ([8]; Prüfkonzentration 0,0015 %): 7,3 % der Kontrolle

Q: Which results are given for `O=C(O)c1ccccc1C(=O)OO` [MMPP, Magnesiummonoperphthalat]?
A: Wachstum des Testkeims (Minimale Hemmkonzentrationen) ([9]; geprüfte Konzentration 0,85%): -; Wachstum des Testkeims (Minimale Hemmkonzentrationen) ([9]; geprüfte Konzentration 0,425%): -; Wachstum des Testkeims (Minimale Hemmkonzentrationen) ([10]; geprüfte Konzentration 0,85%): -; Wachstum des Testkeims (Minimale Hemmkonzentrationen) ([10]; geprüfte Konzentration 0,425%): +; Wachstum des Testkeims (Minimale Hemmkonzentrationen) ([11]; geprüfte Konzentration 0,5%): +; Wachstum des Testkeims (Minimale Hemmkonzentrationen) ([11]; geprüfte Konzentration 0,6%): -; Wachstum des Testkeims (Minimale Hemmkonzentrationen) ([11]; geprüfte Konzentration 0,85%): -; Wachstum des Testkeims (Minimale Hemmkonzentrationen) ([11]; geprüfte Konzentration 0,425%): +; Wachstum des Testkeims (Minimale Hemmkonzentrationen) ([12]; geprüfte Konzentration 0,85%): -; Wachstum des Testkeims (Minimale Hemmkonzentrationen) ([12]; geprüfte Konzentration 0,425%): +; Wachstum des Testkeims (Minimale Hemmkonzentrationen) ([13]; geprüfte Konzentration 0,85%): -; Wachstum des Testkeims (Minimale Hemmkonzentrationen) ([13]; geprüfte Konzentration 0,425%): -; Wachstum des Testkeims (Minimale Hemmkonzentrationen) ([14]; geprüfte Konzentration 0,85%): -; Wachstum des Testkeims (Minimale Hemmkonzentrationen) ([14]; geprüfte Konzentration 0,425%): +; log reduction at 0.5 % ([15]; ATCC10231, 5 min, 0,5 %, x = 5, read-out: log. Reduktionsfaktoren bei einer Einwirkungszeit von x min): 0.55; log reduction at 0.6 % ([15]; ATCC10231, 5 min, 0,6 %, x = 5, read-out: log. Reduktionsfaktoren bei einer Einwirkungszeit von x min): 0.83; log reduction at 0.425 % ([15]; ATCC10231, 5 min, 0,425 %, x = 5, read-out: log. Reduktionsfaktoren bei einer Einwirkungszeit von x min): 1; log reduction at 0.5 % ([15]; ATCC10231, 0.25 h, 0,5 %, x = 15, read-out: log. Reduktionsfaktoren bei einer Einwirkungszeit von x min): 0.88; log reduction at 0.6 % ([15]; ATCC10231, 0.25 h, 0,6 %, x = 15, read-out: log. Reduktionsfaktoren bei einer Einwirkungszeit von x min): 0.91; log reduction at 0.425 % ([15]; ATCC10231, 0.25 h, 0,425 %, x = 15, read-out: log. Reduktionsfaktoren bei einer Einwirkungszeit von x min): 1.5; log reduction at 0.5 % ([15]; ATCC10231, 0.5 h, 0,5 %, x = 30, read-out: log. Reduktionsfaktoren bei einer Einwirkungszeit von x min): 1.28; log reduction at 0.6 % ([15]; ATCC10231, 0.5 h, 0,6 %, x = 30, read-out: log. Reduktionsfaktoren bei einer Einwirkungszeit von x min): 1.7; log reduction at 0.425 % ([15]; ATCC10231, 0.5 h, 0,425 %, x = 30, read-out: log. Reduktionsfaktoren bei einer Einwirkungszeit von x min): 3.6
